Test results published in patent US11198898B2, “Chemical tools for imaging phospholipase D activity” (CORNELL UNIVERSITY, priority 2017, dated 2021).
Like-named read-outs stand apart in the source and are kept apart here.

Experiments:
[1] = tested on: commercially available PLD; assay: In vitro transphosphatidylation of DOPC with alkynols by a commercially available PLD, CuAAC with Az488, HPLC-fluorescence/ESI-MS; assay type: biochemical; details: incubated with DOPC and PLD
[2] = tested on: basal PLD activity in HeLa cells; assay: Basal PLD activity in live cells: AzProp/SPAAC labelling, confocal microscopy with isoform-selective inhibitors; assay type: cell-based, human; details: for effect of inhibitor on ER- and Golgi-derived fluorescence: HeLa cells; for effect of inhibitor on the high-fluorescence cell population: confocal microscopy
Method: To image sites of basal PLD activity within live cells, cells were treated with 1 mM AzProp for 2 hours and rinsed. The SPAAC reaction was then performed using (1).
Further experiments then examined the distribution of basal PLD activity at both the cellular and subcellular levels. […] Thus, at the cellular level, the high fluorescence of a minority of cells can be attributed to PLD1 activity, and the moderate fluorescence in the majority of cells to PLD2.
The subcellular localization of AzProp-marked basal PLD activity appeared to be similar to that of AzProp-marked, PMA-stimulated PLD enzymes, that is localized to a mixture of ER, Golgi, endosomal, and lysosomal membranes. Isoform-selective inhibitors were used to probe the relative contributions of each PLD isoform to PA biosynthetic activity on different organelle membranes. […] Thus, it can be concluded that, in HeLa cells, the bulk of ER-localized, basal PLD activity is due to PLD1, whereas PLD activity on Golgi membranes is due to a roughly equal mix of PLD1 and PLD2.

[3] = tested on: endogenous PLD activity in HeLa cells; assay: Azidoalcohol labelling of PMA-stimulated HeLa cells, lipid extraction, SPAAC with BODIPY-cyclooctyne 1, HPLC; assay type: cell-based, human; details: for decrease of the signal: isoform-selective inhibitor during labeling
[4] = tested on: basal, endogenous PLD activity in HeLa cells; assay: Basal PLD activity: HeLa cells with 1 mM AzProp, lipid extraction, SPAAC with (1), HPLC; assay type: cell-based, human
Method: Up to this point, the efforts focused on monitoring acute PLD activation in response to a stimulus, by using PMA as a model pharmacological agent to mimic activation of several signal transduction pathways. In the absence of a stimulus, however, it is known that PLD enzymes display a much lower but appreciable level of basal activity.
To accomplish this, HeLa cells were treated with 1 mM AzProp, followed by lipid extraction, SPAAC labeling with (1), and HPLC analysis.

[5] = tested on: mammalian PLDs in HeLa cells; assay: Alkynol labelling of PMA-stimulated HeLa cells, lipid extraction, CuAAC with Az488, HPLC-fluorescence; assay type: cell-based, human; details: for extent of incorporation into phosphatidyl alcohols compared to the shorter alkynols: at the same concentration
Method: Further experiments evaluated whether mammalian PLDs would accept alkynols as substrates within live cells. HeLa cells were treated with each of the five alkynols for 20 minutes, stimulated acute PA biosynthesis pharmacologically using phorbol 12-myristate 13-acetate (PMA) (McDermott M, et al., Biochem. Cell Biol. 2004 February; 82(1):225-53), and then isolated total cellular lipid extracts. Following CuAAC labeling with Az488, the samples were analyzed by HPLC coupled to fluorescence detection. The HPLC-fluorescence results for the five alkynols (denoted as 1, 2, 3, 4, or 5 in panels 1-5, respectively) are shown in FIG. 2B.
While all five alkynols were accepted as transphosphatidylation substrates in HeLa cells, they were processed by cellular PLDs with different efficiencies. […] The molecular identities of the fluorescently labeled phosphatidyl alcohols (PA analogs) were verified by analyzing labeled extracts from cells treated with each of the three longer-chain alkynols by HPLC followed by ESI-MS.
This robust labeling with pentynol, hexynol, and heptynol led to further experiments to investigate whether the dose of alkynol could be lowered. The initial concentration of 12.9 mM alkynol corresponded to the low end of the concentration range of 0.1-0.5 mol % that is typically used in the traditional TLC-based butanol transphosphatidylation assay. Such high concentrations of alcohol, however, have several negative consequences. First, they are sufficient to compete with water in the PLD active site and reduce the ability of PLDs to synthesize PA, thus impacting PA-dependent signaling.

[6] = tested on: PLD activity in HeLa cells; assay: Imaging of PLD-mediated PA synthesis in fixed HeLa cells with alkynols, CuAAC with Az488, confocal microscopy; assay type: cell-based, human
Method: To image sites of PLD-mediated PA synthesis, HeLa cells were treated with each of the three longer-chain alkynols and again stimulated PLD activity acutely with PMA, in the absence or presence of FIPI. Rather than proceeding with a whole-cell lipid extraction, cells were fixed with paraformaldehyde and subjected to CuAAC labeling with Az488. […] The observed labeling pattern was complex, likely the result of PA synthesis on membranes of multiple intracellular compartments. To determine the subcellular locations of the hexynol-based labeling, a series of colocalization studies were performed with markers of various organelle membranes. In these studies, HeLa cells were transfected with plasmids encoding fluorescent protein fusions to constituents of several organellar membranes and then the PA labeling protocol was performed using 1 mM hexynol and, where appropriate, either Az488 or an azide-containing tetramethylrhodamine derivative.

[7] = tested on: PLD activity in live cells; assay type: cell-based
[8] = HeLa cells, PMA, SPAAC with BODIPY-cyclooctyne 1
[9] = PMA-stimulated HeLa cells, HPLC

C#CCCO [3-butyn-1-ol]
formation of the expected fluorescent phosphatidyl alcohol product (PLD substrate in vitro) [1]: confirmed the identity of the expected fluorescent phosphatidyl alcohol products

C#CCO [propynol]
formation of the expected fluorescent phosphatidyl alcohol product (PLD substrate in vitro) [1]: confirmed the identity of the expected fluorescent phosphatidyl alcohol products

C[C@@H](CN1CCC(n2c(=O)[nH]c3cc(Br)ccc32)CC1)NC(=O)[C@@H]1C[C@H]1c1ccccc1 [VU0359595]
effect of inhibitor on ER- and Golgi-derived fluorescence [2]: selective disappearance of most of the ER-derived fluorescence but only a portion of the Golgi-derived fluorescence | effect of inhibitor on the high-fluorescence cell population [2]: disappearance of high-fluorescence cells | decrease of the signal ([3]; PMA-stimulated HeLa cells): approximately 75% | share of the unstimulated PLD activity attributed to the inhibited isoform [4]: roughly half

C#CCCCCO [hexynol, 5-hexyn-1-ol]
alkynol concentration at which PA production could be detected in cells ([5]; HPLC): ≥ 100 µM | extent of incorporation into phosphatidyl alcohols compared to the shorter alkynols [5]: incorporated to a greater extent into phosphatidyl alcohols | alkynol concentration permitting detection of alkynol-dependent and FIPI-sensitive fluorescence ([6]; confocal microscopy): ≥ 100 µM | signal-to-background ratio among the three longer-chain alkynols ([6]; confocal microscopy): highest signal-to-background ratio | formation of the expected fluorescent phosphatidyl alcohol product (PLD substrate in vitro) [1]: confirmed the identity of the expected fluorescent phosphatidyl alcohol products

[N-]=[N+]=NCCCCCO [AzPent, 5-azido-1-pentanol]
fluorescent lipid species by HPLC [3, 8]: presence of fluorescent lipid species | efficacy as PLD substrate [3, 9]: performed roughly equivalently

[N-]=[N+]=NCCCCO [AzBut, 4-azido-1-butanol]
fluorescent lipid species by HPLC [3, 8]: presence of fluorescent lipid species | efficacy as PLD substrate [3, 9]: performed roughly equivalently

O=C(NCCN1CCC(n2c(=O)[nH]c3ccccc32)CC1)c1cc2cc(F)ccc2[nH]1 [FIPI, 5-fluoro-2-indolyl deschlorohalopemide, reference compound]
labeling in cells treated with alkynol and PLD inhibitor (negative control) ([6]; PMA, CuAAC with Az488): minimal background labeling | effect of inhibitor on fluorescent lipid species ([3]; treatment of cells during the labeling procedure, PMA-stimulated): complete loss of the fluorescent lipid species | effect of inhibitor on basal phosphatidyl alcohol production ([4]; unstimulated HeLa cells): prevented phosphatidyl alcohol production

[N-]=[N+]=NCCO [AzEt, 2-azidoethanol]
signal-to-background among the azidoalcohols [7]: highest | efficacy as PLD substrate [3]: poorer PLD substrate | fluorescent lipid species by HPLC [3]: presence of fluorescent lipid species

C#CCCCCCO [heptynol, 6-heptyn-1-ol]
extent of incorporation into phosphatidyl alcohols compared to the shorter alkynols [5]: incorporated to a greater extent into phosphatidyl alcohols | formation of the expected fluorescent phosphatidyl alcohol product (PLD substrate in vitro) [1]: confirmed the identity of the expected fluorescent phosphatidyl alcohol products

O=C(NCCN1CCC2(CC1)C(=O)NCN2c1cccc(F)c1)c1ccc2ccccc2c1 [VU0364739]
effect of inhibitor on ER- and Golgi-derived fluorescence [2]: decrease in Golgi-derived fluorescence but had minimal effect on ER-derived fluorescence | effect of inhibitor on the high-fluorescence cell population [2]: did not eliminate the high-fluorescence population | decrease of the signal ([3]; PMA-stimulated HeLa cells): ~25% | share of the unstimulated PLD activity attributed to the inhibited isoform [4]: roughly half

C#CCCCO [pentynol, 4-pentyn-1-ol]
extent of incorporation into phosphatidyl alcohols compared to the shorter alkynols [5]: incorporated to a greater extent into phosphatidyl alcohols | formation of the expected fluorescent phosphatidyl alcohol product (PLD substrate in vitro) [1]: confirmed the identity of the expected fluorescent phosphatidyl alcohol products
